What was measured:
[1] = Displacement of [3H]ditolylguanidine from sigma 2 opioid receptor in rat liver homogenate; type: tissue-based
[2] = biological target: Sigma non-opioid intracellular receptor 1 (Rattus norvegicus, UniProt Q9R0C9); assay: Displacement of [3H](+)-pentazocine from sigma 1 opioid receptor in rat liver homogenate; type: tissue-based
[3] = Selectivity for rat liver sigma 1 opioid receptor over rat liver sigma 2 opioid receptor
Mu-type opioid receptor = Mu-type opioid receptor (Cavia porcellus, UniProt P97266); assay: Displacement of [3H]DAMGO from mu-type opioid receptor in guinea pig brain homogenate; type: tissue-based
[4] = biological target: Delta-type opioid receptor (Rattus norvegicus) (UniProt P33533); assay: Displacement of [3H]DPDPE from delta opioid receptor in rat brain homogenate at 1 uM; type: tissue-based
[5] = biological target: Kappa-type opioid receptor (Cavia porcellus) (UniProt P41144); assay: Displacement of [3H]-U-69593 from kappa-type opioid receptor in guinea pig brain homogenate at 1 uM; type: tissue-based
[6] = biological target: Delta-type opioid receptor (Rattus norvegicus, UniProt P33533); assay: Displacement of [3H]DPDPE from delta opioid receptor in rat brain homogenate; type: tissue-based
[7] = biological target: Mu-type opioid receptor (Cavia porcellus) (UniProt P97266); assay: Displacement of [3H]DAMGO from mu-type opioid receptor in guinea pig brain homogenate at 1 uM; type: tissue-based
[8] = biological target: Kappa-type opioid receptor (Cavia porcellus, UniProt P41144); assay: Displacement of [3H]-U-69593 from kappa-type opioid receptor in guinea pig brain homogenate; type: tissue-based
Sequence of Kappa-type opioid receptor (P41144 whole entry): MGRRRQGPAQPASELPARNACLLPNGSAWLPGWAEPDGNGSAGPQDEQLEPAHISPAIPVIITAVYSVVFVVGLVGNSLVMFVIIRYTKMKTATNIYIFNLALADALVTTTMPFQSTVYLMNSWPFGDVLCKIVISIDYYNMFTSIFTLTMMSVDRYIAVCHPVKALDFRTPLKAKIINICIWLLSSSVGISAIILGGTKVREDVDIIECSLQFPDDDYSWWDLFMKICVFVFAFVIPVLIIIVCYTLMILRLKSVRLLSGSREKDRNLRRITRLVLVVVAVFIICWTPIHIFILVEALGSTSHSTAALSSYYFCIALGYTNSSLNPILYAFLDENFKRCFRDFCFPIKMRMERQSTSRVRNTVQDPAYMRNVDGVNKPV

Sequence of Mu-type opioid receptor (Cavia porcellus) (P97266 whole entry): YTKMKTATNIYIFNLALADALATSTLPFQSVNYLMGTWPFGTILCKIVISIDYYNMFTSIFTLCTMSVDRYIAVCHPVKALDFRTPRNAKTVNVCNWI
Sequence of Sigma non-opioid intracellular receptor 1 (Q9R0C9 whole entry): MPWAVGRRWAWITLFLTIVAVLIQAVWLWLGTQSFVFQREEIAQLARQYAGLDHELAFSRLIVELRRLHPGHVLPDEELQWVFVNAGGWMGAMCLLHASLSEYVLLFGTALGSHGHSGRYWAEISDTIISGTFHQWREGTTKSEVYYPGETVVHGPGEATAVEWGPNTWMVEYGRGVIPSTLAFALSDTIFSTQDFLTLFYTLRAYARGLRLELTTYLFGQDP
Sequence of Kappa-type opioid receptor (Cavia porcellus) (P41144 whole entry): as the sequence (P41144 whole entry) above
Sequence of Delta-type opioid receptor (P33533 whole entry): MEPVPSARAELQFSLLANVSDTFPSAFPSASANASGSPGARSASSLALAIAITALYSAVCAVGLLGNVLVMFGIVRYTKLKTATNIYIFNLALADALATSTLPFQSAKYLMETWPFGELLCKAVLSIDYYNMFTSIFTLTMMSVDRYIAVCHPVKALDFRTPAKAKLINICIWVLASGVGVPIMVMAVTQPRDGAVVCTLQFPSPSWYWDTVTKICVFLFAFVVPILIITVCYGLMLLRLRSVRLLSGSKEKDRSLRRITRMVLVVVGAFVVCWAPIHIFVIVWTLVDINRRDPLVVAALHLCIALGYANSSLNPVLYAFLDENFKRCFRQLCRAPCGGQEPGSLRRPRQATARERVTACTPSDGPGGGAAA
Sequence of Delta-type opioid receptor (Rattus norvegicus) (P33533 whole entry): as above
Sequence of Mu-type opioid receptor (P97266 whole entry): as the sequence (P97266 whole entry) above

Row | SMILES | Ki [1] | Ki [2] | selectivity ratio [3] | Ki (Mu-type opioid receptor) | inhibition [4] | inhibition [5] | Ki [6] | inhibition [7] | Ki [8]
1 | COc1ccc2cc(/C(C)=C/CN(C)C)ccc2c1 | 707 nM | 27.3 nM | 26 | – | – | – | – | – | –
2 | COc1ccc2cc(/C(C)=C/CN(C)Cc3ccccc3)ccc2c1 | 568 nM | 13.7 nM | 41 | – | – | – | – | – | –
3 | COc1ccc2cc(C(C)CCN(C)C)ccc2c1 (racemic) | 1550 nM | 14.4 nM | 108 | – | – | – | – | – | –
4 | COc1ccc2cc(C(C)(O)CCN(C)Cc3ccccc3)ccc2c1 (racemic) | 940 nM | 6.04 nM | 156 | – | – | 30% | 41 nM | 32% | –
5 | COc1ccc2cc(C(C)(O)CCN(C)C)ccc2c1 (racemic) | > 10000 nM | 38.8 nM | > 258 | – | – | – | – | – | –

The next molecules have a lower Ki [1] than those just listed; values first:

Row | Ki [1] | Ki [2] | selectivity ratio [3] | Ki (Mu-type opioid receptor) | inhibition [4] | inhibition [5] | Ki [6] | inhibition [7] | Ki [8] | SMILES
6 | 309 nM | 4.17 nM | 74 | – | – | – | – | – | – | C/C(=C\CN(C)Cc1ccccc1)c1ccc(-c2ccccc2)cc1
7 | 215 nM | 2.38 nM | 90 | – | 31% | 30% | – | 45% | – | CN(CCC(C)(O)c1ccc(-c2ccccc2)cc1)Cc1ccccc1 (racemic)
8 | 214 nM | 3.59 nM | 60 | 248 nM | 0% | 15% | – | – | – | CC(CCN(C)Cc1ccccc1)c1ccc(-c2ccccc2)cc1 (racemic)
9 | 169 nM | 2.31 nM | 73 | – | – | – | 171 nM | 32% | 841 nM | COc1ccc2cc(C(C)CCN(C)Cc3ccccc3)ccc2c1 (racemic)
10 | 169 nM | 1.29 nM | 131 | – | – | – | – | – | – | COc1ccc2cc(C(C)CCN3CCCCC3)ccc2c1 (racemic)
11 | 154 nM | 10.4 nM | 15 | – | – | – | – | – | – | COc1ccc2cc(C(C)(O)CCN3CCCCC3)ccc2c1 (stereo not drawn)
12 | 136 nM | 4.41 nM | 31 | – | – | – | – | – | – | COc1ccc2cc(/C(C)=C/CN3CCCCC3)ccc2c1

From ChEMBL document CHEMBL1159086, “Design, synthesis and SAR analysis of novel selective sigma1 ligands (Part 2)” (Bioorg Med Chem, 2010)
